Measurements reported in BindingDB's records for doi:10.1158/0008-5472.can-03-2847 (The University of Birmingham, 2004).

Tests used:
[1] = molecular target: T1, Aldo-keto reductase family 1 member C3 (Homo sapiens, UniProt P42330); assay: 3alpha-Androstanediol Oxidation Inhibition Assay; settings: pH 7; 30 °C
T1 sequence (P42330 whole entry): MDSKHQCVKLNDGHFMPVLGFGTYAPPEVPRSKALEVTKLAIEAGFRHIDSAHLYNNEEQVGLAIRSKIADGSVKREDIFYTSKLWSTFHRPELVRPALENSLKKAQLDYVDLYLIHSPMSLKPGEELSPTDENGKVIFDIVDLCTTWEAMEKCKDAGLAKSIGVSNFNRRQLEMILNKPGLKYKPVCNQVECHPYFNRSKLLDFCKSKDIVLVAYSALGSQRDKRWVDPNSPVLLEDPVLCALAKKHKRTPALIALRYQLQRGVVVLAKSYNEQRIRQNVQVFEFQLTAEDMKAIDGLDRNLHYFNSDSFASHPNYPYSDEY
Experimental: A fluorescence assay was used to determine the kinetic constants for the oxidation of 3alpha-androstanediol. The fluorescence emission of NADPH at 450 nm (5-nm slit width) with excitation at 340 nm (15-nm slit width) was monitored. A standard curve was constructed by monitoring fluorescence changes with incremental additions of NADPH. […] The type of inhibition and the inhibition constants were calculated using the Leonora program. All reactions were initiated by the addition of enzyme.

[2] = molecular target: T1, Aldo-keto reductase family 1 member C3; assay: Androsterone Reduction Inhibition Assay; settings: pH 7; 30 °C
Experimental: Enzyme activity was measured in the reductive direction against varying concentrations of androsterone. Initial velocities were measured by observing the rate of change of absorbance of pyridine nucleotide at 340 nm. Calculation of kcat and Km values used the Leonora program, yielding estimates of the kinetic constants. […] The type of inhibition and the inhibition constants were calculated using the Leonora program. All reactions were initiated by the addition of enzyme.

Ki [1]: 140 nM
Ki [2]: 3100 nM
Structure (SMILES): O=C(O)c1ccccc1Nc1cccc(C(F)(F)F)c1 [2-{[3-(trifluoromethyl)phenyl]amino}benzoic acid]
